Assay results reported in patent US11420947B2, “(S)-n-hydroxy-2-(2-(4-methoxyphenyl)butanamido)thiazole-5-carboxamide and pharmaceutically acceptable salts thereof” (TRANSLATIONAL DRUG DEVELOPMENT, LLC, priority 2018, dated 2022).

How the values were obtained:
Test in all cases: CellTiter-Glo cell viability assay
Assay type in all cases: cell-based
[1] = system: MCF7; settings: for IC50: Homo sapiens, MCF7, BREAST, ER + BCC, 72 hours
Experimental: (§1) Cell viability in the presence of varying concentrations of the above listed compounds at different time points was used to assess cytotoxicity and the effect of the compounds on cell proliferation.
(§2) Cell viability was measured by the CellTiter-Glo® cell viability assay from Promega (Madison, Wis.). The CellTiter-Glo® Luminescent Cell Viability Assay is a homogeneous method to determine the number of viable cells in culture based on quantitation of the ATP present, which signals the presence of metabolically active cells. Following treatment, CellTiter-Glo® is added to treatment wells and incubated at 37° C. luminescence values were measured at using a Molecular Devices Spectramax microplate reader
(§3) Cells were grown to 70% confluency, trypsinized, counted, and seeded in 96 well flat-bottom plates at a final concentration of 2.5×10^3-5×10^3 cells/well (Day 0). Cells were allowed to incubate in growth media for 24 hours. Treatment with the test agents or standard agents began on Day 1 and continued for 72 hours. At the 72-hour timepoint, treatment containing media was removed. Viable cell numbers are quantified by the CellTiter-Glo® cell viability assay as described above. Results from these studies were used to calculate an IC50 value (concentration of drug that inhibits cell growth by 50 percent of control) for each compound.
(§4) For single agent and combination studies, data from each experiment was collected and expressed as % Cell Growth using the following calculation: % Cell Growth=(ftest/fvehicle)×100
(§5) Where test is the fluorescence of the tested sample, and fvehicle is the fluorescence of the vehicle in which the drug is dissolved. Dose response graphs and IC50 values were generated using Prism 6 software (GraphPad) using the following equation: Y=(Top-Bottom)/(1+10^((logIC^50^-X)-HillSlope))

[2] = system: Y79; settings: for IC50: Homo sapiens, Y79, RETINOBLASTOMA, Retina, 72 hours
Experimental: as §1, §2, §3, §4, §5

[3] = system: NCI-H209; settings: for IC50: Homo sapiens, NCI-H209, LUNG, Carcinoma, 72 hours
Experimental: as §1, §2, §3, §4, §5

[4] = system: DOHH-2; settings: for IC50: Homo sapiens, DOHH-2, HEMATOPIETIC, Lymphoma, 72 hours
Experimental: as §1, §2, §3, §4, §5

[5] = system: HCC1806; settings: for IC50: Homo sapiens, HCC1806, BREAST, acantholytic squamous cell carcinoma, 72 hours
Experimental: as §1, §2, §3, §4, §5

[6] = system: K562; settings: for IC50: Homo sapiens, K562, HEMATOPIETIC, CML, 72 hours
Experimental: as §1, §2, §3, §4, §5

[7] = system: MV411; settings: for IC50: Homo sapiens, MV4-11, MV411, HEMATOPIETIC, AML, 72 hours
Experimental: as §1, §2, §3, §4, §5

[8] = system: SN12CCP; settings: for IC50: SN12CCP, RENAL, RCC, 72 hours
Experimental: as §1, §2, §3, §4, §5

[9] = system: YAPC; settings: for IC50: Homo sapiens, YAPC, PANCREAS, Pancreatic, 72 hours
Experimental: as §1, §2, §3, §4, §5

[10] = system: Ishikawa; settings: for IC50: Homo sapiens, Ishikawa, ENDOMETRIAL, 72 hours
Experimental: as §1, §2, §3, §4, §5

[11] = system: MeWo; settings: for IC50: Homo sapiens, MeWo, MELANOMA, LN Met, 72 hours
Experimental: as §1, §2, §3, §4, §5

[12] = system: MOLP-8; settings: for IC50: Homo sapiens, MOLP-8, HEMATOPIETIC, MM, 72 hours
Experimental: as §1, §2, §3, §4, §5

[13] = system: G402; settings: for IC50: Homo sapiens, G-402, G402, RENAL, Renal leiomyoblastoma, 72 hours
Experimental: as §1, §2, §3, §4, §5

[14] = system: Cal-27; settings: for IC50: Homo sapiens, Cal-27, H&N SQUAMOUS CELL, Tongue, 72 hours
Experimental: as §1, §2, §3, §4, §5

[15] = system: RPMI-8226; settings: for IC50: Homo sapiens, RPMI-8226, HEMATOPIETIC, MM, 72 hours
Experimental: as §1, §2, §3, §4, §5

[16] = system: ASPC-1; settings: for IC50: Homo sapiens, ASPC1, ASPC-1, PANCREAS, Pancreatic, 72 hours
Experimental: as §1, §2, §3, §4, §5

[17] = system: Panc-1; settings: for IC50: Homo sapiens, Panc-1, PANCREAS, Pancreatic, 72 hours
Experimental: as §1, §2, §3, §4, §5

[18] = system: MFE296; settings: for IC50: Homo sapiens, MFE-296, MFE296, ENDOMETRIAL, Endometrial, 72 hours
Experimental: as §1, §2, §3, §4, §5

[19] = system: H1975; settings: for IC50: Homo sapiens, NCI-H1975, H1975, LUNG, NSCLC, 72 hours
Experimental: as §1, §2, §3, §4, §5

[20] = system: SK-Hep-1; settings: for IC50: Homo sapiens, SK-HEP1, SK-Hep-1, LIVER, HCC, 72 hours
Experimental: as §1, §2, §3, §4, §5

[21] = system: A427; settings: for IC50: Homo sapiens, A-427, A427, LUNG, Carcinoma, 72 hours
Experimental: as §1, §2, §3, §4, §5

[22] = system: BxPC-3; settings: for IC50: Homo sapiens, BxPC-3, PANCREAS, Pancreatic, 72 hours
Experimental: as §1, §2, §3, §4, §5

[23] = system: Nalm-6; settings: for IC50: Homo sapiens, Nalm-6, HEMATOPIETIC, ALL, 72 hours
Experimental: as §1, §2, §3, §4, §5

[24] = system: LK-2; settings: for IC50: Homo sapiens, LK-2, LUNG, Carcinoma, 72 hours
Experimental: as §1, §2, §3, §4, §5

[25] = system: H1650; settings: for IC50: Homo sapiens, NCI-H1650, H1650, LUNG, NSCLC, 72 hours
Experimental: as §1, §2, §3, §4, §5

## CCC(C(=O)Nc1ncc(C(=O)NO)s1)c1ccc(OC)cc1 (racemic) [#1, N-hydroxy-2-(2-(4-methoxyphenyl)butanamido)thiazole-5-carboxamide]
[1]
  IC50: 39 nM
[2]
  IC50: 363 nM
[3]
  IC50: 110 nM
[4]
  IC50: 16 nM
[5]
  IC50: 179 nM
[6]
  IC50: 145 nM
[7]
  IC50: 7 nM
[8]
  IC50: 126 nM
[9]
  IC50: 437 nM
[10]
  IC50: 48 nM
[11]
  IC50: 158 nM
[12]
  IC50: 13 nM
[13]
  IC50: 102 nM
[14]
  IC50: 215 nM
[15]
  IC50: 31 nM
[16]
  IC50: 158 nM
[17]
  IC50: 631 nM
[18]
  IC50: 52 nM
[19]
  IC50: 114 nM
[20]
  IC50: 374 nM
[21]
  IC50: 309 nM
[22]
  IC50: 251 nM
[23]
  IC50: 26 nM
[24]
  IC50: 196 nM
[25]
  IC50: 363 nM

## CC[C@H](C(=O)Nc1ncc(C(=O)NO)s1)c1ccc(OC)cc1 [#1a, (S)—N-hydroxy-2-(2-(4-methoxyphenyl)butanamido)thiazole-5-carboxamide]
[1]
  IC50: 21 nM
[1]; ratio of IC50, MCF7
  #1/#1a: 1.86
  #1b/#1a: 7.52
[2]
  IC50: 87 nM
[2]; ratio of IC50, Y79
  #1/#1a: 4.17
  #1b/#1a: 7.25
[3]
  IC50: 16 nM
[3]; ratio of IC50, NCI-H209
  #1/#1a: 6.88
  #1b/#1a: 15.69
[4]
  IC50: 17 nM
[4]; ratio of IC50, DOHH-2
  #1/#1a: 0.94
  #1b/#1a: 7.94
[5]
  IC50: 71 nM
[5]; ratio of IC50, HCC1806
  #1/#1a: 2.52
  #1b/#1a: 6.55
[6]
  IC50: 78 nM
[6]; ratio of IC50, K562
  #1/#1a: 1.86
  #1b/#1a: 5.1
[7]
  IC50: 6 nM
[7]; ratio of IC50, MV411
  #1/#1a: 1.17
  #1b/#1a: 3.83
[8]
  IC50: 55 nM
[8]; ratio of IC50, SN12CCP
  #1/#1a: 2.29
  #1b/#1a: 7.45
[9]
  IC50: 215 nM
[9]; ratio of IC50, YAPC
  #1/#1a: 2.03
  #1b/#1a: 9.13
[10]
  IC50: 28 nM
[10]; ratio of IC50, Ishikawa
  #1/#1a: 1.71
  #1b/#1a: 6.82
[11]
  IC50: 83 nM
[11]; ratio of IC50, MeWo
  #1/#1a: 1.9
  #1b/#1a: 7.37
[12]
  IC50: 13 nM
[12]; ratio of IC50, MOLP-8
  #1/#1a: 1
  #1b/#1a: 2.46
[13]
  IC50: 65 nM
[13]; ratio of IC50, G402
  #1/#1a: 1.57
  #1b/#1a: 7.71
[14]
  IC50: 45 nM
[14]; ratio of IC50, Cal-27
  #1/#1a: 4.78
  #1b/#1a: 10.33
[15]
  IC50: 14 nM
[15]; ratio of IC50, RPMI-8226
  #1/#1a: 2.21
  #1b/#1a: 9.21
[16]
  IC50: 112 nM
[16]; ratio of IC50, ASPC-1
  #1/#1a: 1.41
  #1b/#1a: 7.26
[17]
  IC50: 302 nM
[17]; ratio of IC50, Panc-1
  #1/#1a: 2.09
  #1b/#1a: 8.85
[18]
  IC50: 35 nM
[18]; ratio of IC50, MFE296
  #1/#1a: 1.49
  #1b/#1a: 5.83
[19]
  IC50: 40 nM
[19]; ratio of IC50, H1975
  #1/#1a: 2.85
  #1b/#1a: 9.95
[20]
  IC50: 149 nM
[20]; ratio of IC50, SK-Hep-1
  #1/#1a: 2.51
  #1b/#1a: 6.71
[21]
  IC50: 186 nM
[21]; ratio of IC50, A427
  #1/#1a: 1.66
  #1b/#1a: 7.77
[22]
  IC50: 174 nM
[22]; ratio of IC50, BxPC-3
  #1/#1a: 1.44
  #1b/#1a: 6.3
[23]
  IC50: 11 nM
[23]; ratio of IC50, Nalm-6
  #1/#1a: 2.36
  #1b/#1a: 8.27
[24]
  IC50: 40 nM
[24]; ratio of IC50, LK-2
  #1/#1a: 4.9
  #1b/#1a: 9.95
[25]
  IC50: 174 nM
[25]; ratio of IC50, H1650
  #1/#1a: 2.09
  #1b/#1a: 6.91

## CC[C@@H](C(=O)Nc1ncc(C(=O)NO)s1)c1ccc(OC)cc1 [#1b, (R)—N-hydroxy-2-(2-(4-methoxyphenyl)butanamido)thiazole-5-carboxamide]
[1]
  IC50: 158 nM
[2]
  IC50: 631 nM
[3]
  IC50: 251 nM
[4]
  IC50: 135 nM
[5]
  IC50: 465 nM
[6]
  IC50: 398 nM
[7]
  IC50: 23 nM
[8]
  IC50: 410 nM
[9]
  IC50: 1960 nM
[10]
  IC50: 191 nM
[11]
  IC50: 612 nM
[12]
  IC50: 32 nM
[13]
  IC50: 501 nM
[14]
  IC50: 465 nM
[15]
  IC50: 129 nM
[16]
  IC50: 813 nM
[17]
  IC50: 2670 nM
[18]
  IC50: 204 nM
[19]
  IC50: 398 nM
[20]
  IC50: 1000 nM
[21]
  IC50: 1440 nM
[22]
  IC50: 1100 nM
[23]
  IC50: 91 nM
[24]
  IC50: 398 nM
[25]
  IC50: 1200 nM
